Data set [1] in a line: Electrostatic charge measurements with a Faraday cage. The class given is physicochemical. Conditions: for Dispersion of charge density (Q/m) / Average charge density (Q/m): Faraday cage, dry nitrogen, ranges with 95% confidence; for Average charge density (Q/m): slope of lineal regression of charge vs mass. The source says:
The electrostatic charges of two batches of form A of lurbinectedin (Batches P04 and R05) and of form B of lurbinectedin (Batch 1924129-LT and 1924128-LT) have been measured using a Faraday cage (See FIG. 8) constructed of stainless steel with concentric spheres with ratios 10, 15 and 20 cm.
This technique consists in placing the sample to be measured (q) in the interior of the inner sphere (a) and measuring the difference of potential induced between sphere (a) and another conductor of reference, sphere (b). The external sphere (c) is grounded in order to shield the system. The measurements of the difference of potential were carried out with a precision electrometer (Keithley 617, resolution 10fC.
Measurements were carried out under controlled atmosphere of dry nitrogen in order to avoid the effect of ambient humidity on the electrostatic charge of the samples.
Samples were introduced in glass capsules using non-conductor instrumental to avoid loses of electrostatic charge.
The capsules loaded with the samples were introduced in the Faraday cage through a grounded conductor tube to avoid parasitic static charges in the glass capsule. The entry and removal of the capsules was done with a computer-controlled servo engine, in order to ensure a constant rate of introduction and removal of the capsules in each measurement to minimize the creation of static charges due to friction of the insulator elements.
Several measurements with different amounts of material were carried out for each batch of each form of lurbinectedin. Before loading the capsules, they were washed and their remaining static charge was measured in order to correct the levels. Each sample was introduced and removed five times and, after each introduction, several consecutive measurements were taken in order to average any possible drift effect. FIGS. 9a and 9b summarized the results of such measurement for each pair of batches of forms A and B of lurbinectedin.
The measured charge Q increases with the amount of analyzed material. Both forms of lurbinectedin have a positive electrostatic charge. […] The data was fitted by lineal regression (dashed lines in FIGS. 9a and 9b) to obtain the charge density (Q/m) as the slope of the line. […] All ranges are given with a 95% confidence.

Data set [2] is described as follows: Direct dissolution of lurbinectedin in sodium lactate buffer (dissolution kinetics). Format: physicochemical. As to the method:
In embodiments, the lurbinectedin to be dissolved is at least partially crystalline. The lurbinectedin to be dissolved may be in the solid state form(s) described herein. […] By way of example, while the direct dissolution of amorphous lurbinectedin at 0.5 mg/mL in 0.03 M sodium lactate buffer pH 4 was completed in approximately 30 minutes, partly crystalline lurbinectedin reached only 60-70% of the target concentration in 2 hours, meaning that it had much slower dissolution kinetics.

Data set [3] can be described thus: TG-FTIR thermal degradation. To be noted: N2 atmosphere, 25-250° C., 10° C./min. The class given is physicochemical. As to the method:
TG-FTIR experiments were conducted with a Thermo-Microbalance TG-209 (Netzsch) equipped with a FT-IR Spectrometer Vector 22 (Bruker) using Al crucible (open or with microhole) under N2 atmosphere with a heating range between 25 and 250° C. and a heating rate of 10° C./min.
TG-FTIR indicates degradation above 150° C. for form B of lurbinectedin. A release of 2.6% of water was detected.

The nature of another data set: DSC thermal degradation. The class given is physicochemical. Conditions: closed Au crucibles, -50 to 250° C. As to the method: DSC experiments were carried out with a Perkin Elmer DSC 7 using closed Au crucibles with a heating range between −50 to 250° C. and a heating rate of 10 or 20° C./min.
Estimation of the amorphous content by DSC was not possible. […] A glass transition temperature or melting point was not detected.
(In DSC, transitions show as peaks or steps in heat flow.)

The nature of data set [4]: Dynamic vapor sorption (DVS). Format: physicochemical. As to the method: DVS experiments were carried out with a Projekt Messtechnik SPS 11-100n multi-sample water vapor sorption analyzer. The sample was allowed to equilibrate at 50% r.h. before starting a pre-defined humidity program. The program was: • 2 h at 50% r.h. • 50 to 0% r.h. […]
DVS indicates a continuous water uptake and release with no steps and almost no hysteresis. […] Upon lowering the relative humidity again, the water content decreased and nearly returned to the original mass, see FIG. 5.

The nature of data set [5]: Maximum solubility of lurbinectedin in different molarities of lactic acid. Format: physicochemical. As to the method: As such, in embodiments, a concentrated lurbinectedin solution is prepared in organic acid before addition of other excipients. In preferred embodiments, the organic acid has a pH less than 4, preferably less than 3.5, more preferably less than 3, or around 3. The maximum solubility of lurbinectedin was investigated in different molarities of the organic acid lactic acid. […] In a preferred embodiment, lurbinectedin is dissolved in an organic acid with a molarity of around 0.1 M to 0.5 M, preferably around 0.2 M to 0.4 M, more preferably around 0.3 M organic acid. An exemplary molarity is 0.31 M organic acid.

The nature of data set [6]: Mixing of the concentrated lurbinectedin solution with buffer solution, precipitation. The class given is physicochemical. To be noted: high concentration lurbinectedin solution (8.3 mg/mL in 0.1M lactic acid). As to the method: In embodiments, a multi-step compounding strategy is used to prepare lurbinectedin. Step 1 is the pre-dissolution step described above, for example: pre-dissolving partly crystalline lurbinectedin in lactic acid 0.31M at 25 mg/mL and diluting 3× with WFI to obtain the concentrated solution at 8.3 mg/mL in 0.1M lactic acid. To avoid precipitation of lurbinectedin, the remaining excipients should have acid pH when added to the compounding formulation. […] As such, in Step 2, an organic buffer solution containing the bulking agent (eg disaccharide) may be prepared at suitable pH. By way of example, this may comprise the preparation of a 0.04 M sodium lactate buffer at pH of around 4.2 containing sucrose. In step 3, the solutions from step 1 and step 2 are combined to form the final bulk solution. The final bulk solution may be adjusted with WFI to achieve the final target weight. By way of example, in step 3, the 8.3 mg/mL lurbinectedin concentrated solution in 0.1M lactic acid with pH≈3 is diluted with 0.04M sodium lactate buffer pH≈4.2 containing sucrose. The final bulk solution composition after adjustment of WFI to final weight may be, by way of example, 0.5 mg/mL lurbinectedin in 0.03M sodium lactate buffer pH=4+10% (w/v) sucrose. The present invention therefore identifies a compounding strategy to formulate partially crystalline lurbinectedin.

Data set [7] has as its system solid and non-solid tumour cell lines. To be noted: cited from earlier work.
Data set [8] deals with xenografted human tumor cell lines. To be noted: xenografts in mice, such as breast, kidney and ovarian cancer; cited from earlier work.

For the substance lurbinectedin [form A of lurbinectedin], the “Total static charge relative to form B” value in [1] is “considerably higher”. Further, in data set [1] (listed as P04), the “Dispersion of charge density (Q/m)” value turned out to be 7.6 ± 2.8 nC/g and the “Average charge density (Q/m)” value is 43.1 ± 3.86 nC/g. In data set [1] (listed as R05), the “Dispersion of charge density (Q/m)” value is on record as 15.23 ± 5.64 nC/g and the “Average charge density (Q/m)” value came to 64.02 ± 7.98 nC/g. In addition, the “Time to complete direct dissolution” value in [2] (0.5 mg/mL in 0.03 M sodium lactate buffer pH 4) is recorded as “approximately 30 minutes”.

Regarding lurbinectedin [form B of lurbinectedin], in data set [1] (listed as 1924128-LT), the “Dispersion of charge density (Q/m)” value worked out at 1.01 ± 0.3 nC/g and the “Average charge density (Q/m)” value stood at 4.3 ± 0.4 nC/g. In addition, in data set [1] (listed as 1924129-LT), the “Dispersion of charge density (Q/m)” value came to 3.4 ± 1.4 nC/g and the “Average charge density (Q/m)” value turned out to be 4.96 ± 2.0 nC/g. In addition, the “Average charge density relative to form A” value in data set [1] (two different batches of each form) is on record as “one order of magnitude lower”. Moreover, the “Fraction of target concentration reached” value in data set [2] (target 0.5 mg/mL in 0.03 M sodium lactate buffer pH 4, in 2 hours) is on record as 60-70%. The “Degradation temperature (TG-FTIR)” value in data set [3] is “above 150 °C”. In addition, the “Temperature at which degradation begins (DSC)” value in the data set “DSC thermal degradation” is “above 130 °C”. Besides, in [4], the “Deliquescence (DVS)” value is recorded as “not deliquescent” and the “Hygroscopicity (DVS)” value is reported as “hygroscopic”. In addition, in [4] (50 to 96% r.h.), the “Mass change Δm (water uptake, DVS)” value was “≈ 4%”.

On to lurbinectedin, for which the Maximum solubility in [5] (0.05 M lactic acid) amounted to 7.2 mg/mL; in data set [5] (0.5 M lactic acid), 90.4 mg/mL. In data set [6], the “pH of buffer solution that can be mixed without precipitation of lurbinectedin” value is listed as not above 5.6. Also, in data set [7], the In vitro activity entry was “highly potent”. For the same substance, the In vivo activity result in data set [8] is reported as “significant”.

Source of the values: patent US20230014782A1, “NEW SOLID STATE FORM OF LURBINECTEDIN” (PHARMA MAR, S.A., priority 2019, published 2023).
